Species on record: Rattus norvegicus
Assay: DrugMatrix - Regimen: Daily Repeat
Type: toxicity, organism-based, Sprague-Dawley
Set-up: regimen Daily Repeat, gender Male, age 6-8 weeks
Conditions: in vivo, po, route oral GAVAGE, vehicle .5 % CMC; for ABSOLUTE BASOPHIL / ABSOLUTE EOSINOPHIL / ABSOLUTE LYMPHOCYTE / ABSOLUTE MONOCYTE / ABSOLUTE SEGMENTED NEUTROPHIL / BASOPHIL / EOSINOPHIL / ERYTHROCYTE COUNT / HEMATOCRIT / HEMOGLOBIN / LEUKOCYTE COUNT / LYMPHOCYTE / MEAN CORPUSCULAR HEMOGLOBIN / MEAN CORPUSCULAR HEMOGLOBIN CONCENTRATION / MEAN CORPUSCULAR VOLUME / MONOCYTE / NEUTROPHIL / NUCLEATED RED BLOOD CELLS / PLATELET COUNT: tissue Blood; for ALANINE AMINOTRANSFERASE / ALBUMIN / ALKALINE PHOSPHATASE / ASPARTATE AMINOTRANSFERASE / BLOOD UREA NITROGEN / CARBON DIOXIDE / CHLORIDE / CHOLESTEROL / CREATINE PHOSPHOKINASE / CREATININE / GLUCOSE / LACTATE DEHYDROGENASE / LIPASE / PHOSPHORUS / POTASSIUM / SODIUM / TOTAL BILIRUBIN / TOTAL PROTEIN / URIC ACID: tissue Plasma
[1] = 0 mg/kg, 72 h, dose level Control, time 3 day
[2] = 0 mg/kg, 120 h, dose level Control, time 5 day
[3] = 3 mg/kg, 72 h, dose level Low, time 3 day

O=c1[nH]cc(F)c(=O)[nH]1 [FLUOROURACIL]
ABSOLUTE BASOPHIL [1]: 0 CELLS/uL
ABSOLUTE EOSINOPHIL [1]: 130.33 CELLS/uL
ABSOLUTE LYMPHOCYTE [1]: 10030.67 CELLS/uL
ABSOLUTE MONOCYTE [1]: 41 CELLS/uL
ABSOLUTE SEGMENTED NEUTROPHIL [1]: 1298 CELLS/uL
BASOPHIL [1]: 0%
EOSINOPHIL [1]: 1%
ERYTHROCYTE COUNT [1]: 5.22 x10E6/uL
HEMATOCRIT [1]: 33.53%
HEMOGLOBIN [1]: 12.73 G/DL
LEUKOCYTE COUNT [1]: 11.5 x10E3/uL
LYMPHOCYTE [1]: 87.67%
MEAN CORPUSCULAR HEMOGLOBIN [1]: 24.45 pg
MEAN CORPUSCULAR HEMOGLOBIN CONCENTRATION [1]: 37.97 G/DL
MEAN CORPUSCULAR VOLUME [1]: 64.33 fL
MONOCYTE [1]: 0.33%
NEUTROPHIL [1]: 11%
NUCLEATED RED BLOOD CELLS [1]: 0 /100WBC
PLATELET COUNT [1]: 1310.5 x10E3/uL
ALANINE AMINOTRANSFERASE [1]: 52 u/L
ALBUMIN [1]: 4.22 G/DL
ALKALINE PHOSPHATASE [1]: 340.17 u/L
ASPARTATE AMINOTRANSFERASE [1]: 87.5 u/L
BLOOD UREA NITROGEN [1]: 15.17 mg/dL
CARBON DIOXIDE [1]: 25.5 mmol/L
CHLORIDE [1]: 101.83 MEQ/L
CHOLESTEROL [1]: 68.17 mg/dL
CREATINE PHOSPHOKINASE [1]: 379.67 u/L
CREATININE [1]: 0.17 mg/dL
GLUCOSE [1]: 181.67 mg/dL
LACTATE DEHYDROGENASE [1]: 256.17 u/L
LIPASE [1]: 8 u/L
PHOSPHORUS [1]: 12.1 mg/dL
POTASSIUM [1]: 5.88 MEQ/L
SODIUM [1]: 143.67 MEQ/L
TOTAL BILIRUBIN [1]: 0.18 mg/dL
TOTAL PROTEIN [1]: 5.92 G/DL
URIC ACID [1]: 1.7 mg/dL
ABSOLUTE BASOPHIL [2]: 0 CELLS/uL
ABSOLUTE EOSINOPHIL [2]: 31 CELLS/uL
ABSOLUTE LYMPHOCYTE [2]: 9599.17 CELLS/uL
ABSOLUTE MONOCYTE [2]: 52.83 CELLS/uL
ABSOLUTE SEGMENTED NEUTROPHIL [2]: 1050.33 CELLS/uL
BASOPHIL [2]: 0%
EOSINOPHIL [2]: 0.33%
ERYTHROCYTE COUNT [2]: 5.53 x10E6/uL
HEMATOCRIT [2]: 35.8%
HEMOGLOBIN [2]: 13.53 G/DL
LEUKOCYTE COUNT [2]: 10.73 x10E3/uL
LYMPHOCYTE [2]: 89%
MEAN CORPUSCULAR HEMOGLOBIN [2]: 24.47 pg
MEAN CORPUSCULAR HEMOGLOBIN CONCENTRATION [2]: 37.82 G/DL
MEAN CORPUSCULAR VOLUME [2]: 64.7 fL
MONOCYTE [2]: 0.5%
NEUTROPHIL [2]: 10.17%
NUCLEATED RED BLOOD CELLS [2]: 0 /100WBC
PLATELET COUNT [2]: 1028.5 x10E3/uL
ALANINE AMINOTRANSFERASE [2]: 45.33 u/L
ALBUMIN [2]: 4.33 G/DL
ALKALINE PHOSPHATASE [2]: 351.83 u/L
ASPARTATE AMINOTRANSFERASE [2]: 73.5 u/L
BLOOD UREA NITROGEN [2]: 17.83 mg/dL
CARBON DIOXIDE [2]: 24.67 mmol/L
CHLORIDE [2]: 100 MEQ/L
CHOLESTEROL [2]: 67 mg/dL
CREATINE PHOSPHOKINASE [2]: 284 u/L
CREATININE [2]: 0.2 mg/dL
GLUCOSE [2]: 152.33 mg/dL
LACTATE DEHYDROGENASE [2]: 108.67 u/L
LIPASE [2]: 8.17 u/L
PHOSPHORUS [2]: 11.17 mg/dL
POTASSIUM [2]: 6.14 MEQ/L
SODIUM [2]: 144.68 MEQ/L
TOTAL BILIRUBIN [2]: 0.22 mg/dL
TOTAL PROTEIN [2]: 6.08 G/DL
URIC ACID [2]: 1.27 mg/dL
ABSOLUTE BASOPHIL [3]: 0 CELLS/uL
ABSOLUTE EOSINOPHIL [3]: 34 CELLS/uL
ABSOLUTE LYMPHOCYTE [3]: 9566.33 CELLS/uL
ABSOLUTE MONOCYTE [3]: 34 CELLS/uL
ABSOLUTE SEGMENTED NEUTROPHIL [3]: 1732.33 CELLS/uL
BASOPHIL [3]: 0%
EOSINOPHIL [3]: 0.33%
ERYTHROCYTE COUNT [3]: 5.74 x10E6/uL
HEMATOCRIT [3]: 36.43%
HEMOGLOBIN [3]: 13.5 G/DL
LEUKOCYTE COUNT [3]: 11.37 x10E3/uL
LYMPHOCYTE [3]: 84%
MEAN CORPUSCULAR HEMOGLOBIN [3]: 23.57 pg
MEAN CORPUSCULAR HEMOGLOBIN CONCENTRATION [3]: 37.07 G/DL
MEAN CORPUSCULAR VOLUME [3]: 63.6 fL
MONOCYTE [3]: 0.33%
NEUTROPHIL [3]: 15.33%
NUCLEATED RED BLOOD CELLS [3]: 0 /100WBC
PLATELET COUNT [3]: 984 x10E3/uL
ALANINE AMINOTRANSFERASE [3]: 53.67 u/L
ALBUMIN [3]: 4.33 G/DL
ALKALINE PHOSPHATASE [3]: 357 u/L
ASPARTATE AMINOTRANSFERASE [3]: 102 u/L
BLOOD UREA NITROGEN [3]: 15 mg/dL
CARBON DIOXIDE [3]: 26 mmol/L
CHLORIDE [3]: 100.67 MEQ/L
CHOLESTEROL [3]: 72.33 mg/dL
CREATINE PHOSPHOKINASE [3]: 938.33 u/L
CREATININE [3]: 0.19 mg/dL
GLUCOSE [3]: 156 mg/dL
LACTATE DEHYDROGENASE [3]: 212 u/L
LIPASE [3]: 8.67 u/L
PHOSPHORUS [3]: 12.53 mg/dL
POTASSIUM [3]: 6.78 MEQ/L
SODIUM [3]: 143.77 MEQ/L
TOTAL BILIRUBIN [3]: 0.23 mg/dL
TOTAL PROTEIN [3]: 6.07 G/DL

Reference: ChEMBL document CHEMBL3885881, “DrugMatrix”
